Reference: paper PMC6114901, “An automated screening method for detecting compounds with goitrogenic activity using transgenic zebrafish embryos” (PLoS ONE, 2018)
Entries after “also recorded” stand apart in the source; their conditions may differ.

System: thyroglobulin (tg:mCherry reporter gene)
Experiment: animal or person
Protocol: In order to avoid interference of test chemicals with early thyroid gland development, zebrafish embryos were cultured in exposure medium until 48 hours post fertilization (hpf). Subsequently, they were exposed to seven known thyroid endocrine disrupters for 3 days (48 to 120 hpf). The non-goitrogenic compound 3,4-dichloroaniline, that is used as reference compound in the zebrafish acute embryo toxicity test was used as negative control. […] No solvents were used. […] Five concentrations and one control were tested per compound and replicate. In the second replicate the range of concentration was adjusted to improve fitting of concentration-response curves. […] Given the lack of appropriate spectral properties stability of exposure concentrations was not analysed for potassium perchlorate. Embryos were kept in the incubator at 26°C and a 14:10 hours light:dark cycle. The exposure was conducted in crystallisation dishes covered with watchmaker glasses with 30 embryos in 30 ml exposure medium (for exposure medium refer to [26]).
Embryos were positioned ventrally toward the microscope objective. Per embryo a bright field image, an autofocus fluorescence image and a Z-stack of 9 images were obtained. The Z-stack was required in case of autofocus failure and manual selection of the focal plane. Fluorescence images were obtained with 400 ms of fluorescent light exposure at maximal light intensity and a gain of 1. […] However, care was taken, that at least 10 images per concentration and replicates were assessed. To avoid a time bias during the analysis the sequence of wells for analysis was arranged in order to obtain a uniform distribution over the entire period of analysis.
The images were analysed using a KNIME workflow (Version 3.3.3., [29]) with the extension “KNIME image processing”. In brief, images were loaded into the workflow and the background was removed automatically using the “rolling ball” procedure of the image J plugin (rolling ball size set to 50 pixels). Subsequently the area containing the thyroid gland was manually selected by drawing a rectangle around the appropriate region using the interactive annotation node. […] If possible the autofocus images were used. In case that the thyroid gland was out of focus due to the presence of autofluorescing pigment cells, an appropriate image from the Z-stack was selected. All subsequent steps were conducted without any user interaction. […] Finally the sum of pixel (reflecting area of the thyroid gland and intensity of fluorescence) was calculated for the labeled area and used as a proxy of fluorescence intensity (see Fig 1 for an overview of the workflow). For each replicate the sum was of pixels was normalized by setting controls to the value of one. For data of individual embryos see S4 Table. The KNIME workflow used for image analysis is provided as supplement file (S1 Workflow).
To characterize the potency of the investigated goitrogenic compounds, we calculated EC50 values of tg:mcherry fluorescence using the pixel sum obtained from image analysis. For each replicate the fluorescence intensity was normalized by dividing the mean fluorescence intensity of each concentration with the mean control fluorescence intensity. Concentration-response curves of tgmcherry fluorescence were fitted to the data using the Hill-slope equation (Eq 1) and used to estimate EC50 values.
The parameter Min was set to 1 and the slope (p) and the maximum fluorescence (Max) were estimated.

SMILES | effect on tg:mCherry fluorescence (zebrafish, in vivo) | Normalised mean pixel sum (0.13 µM, replicate 2) | Normalised mean pixel sum (0.493827 µM, replicate 1) | Normalised mean pixel sum (1.91 µM, replicate 2) | Normalised mean pixel sum (7.40741 µM, replicate 1) | Normalised mean pixel sum (29 µM, replicate 2) | Normalised mean pixel sum (111.111 µM, replicate 1) | Normalised mean pixel sum (430 µM, replicate 2) | Normalised mean pixel sum (1666.67 µM, replicate 1) | Normalised mean pixel sum (6455 µM, replicate 2) | Slope (Hill slope of tg:mCherry concentration-response curve) | BMD 20 (concentration at which a 20% increase of tg:mCherry fluorescence was observed) | EC50 (read-out: EC50 (tg:mCherry induction), exposure 48–120 hpf, Hill-slope model) | TDI (thyroid disruption index = LC50/EC50 tg:mCherry induction)
Nc1ccc(Cl)c(Cl)c1 [3,4-DCA, 3,4-dichloroaniline] | decreased the fluorescence signal; also recorded: did not induce tg:mCherry fluorescence but led to a concentration dependent reduction in fluorescence | – | – | – | – | – | – | – | – | – | – | – | – | –
[K+].[O-][Cl+3]([O-])([O-])[O-] [Potassium perchlorate, potassium perchlorate] | – | 0.90 | 1.06 | 1.30 | 0.86 | 1.75 | 1.38 | 1.97 | 2.55 | 2.16 | 0.69 | 37.6 µM | 137 µM | 241
